According to US11485745B2, “Amido spirocyclic amide and sulfonamide derivatives” (Valo Health, Inc., priority 2012, dated 2022):

Test system: A2780 cells
Experiment: In-Vitro Cell Proliferation Assay (A2780, sulforhodamine B, 72 hours)
Type: cell-based
Details: SRB

Q: How did the IC50 (Homo sapiens, A2780, 72 h) turn out when CCS(=O)(=O)N1CCC2(CC1)CC2CNC(=O)c1cc2cnccc2[nH]1 (stereo not drawn) [Example 14, N-[(8-ethylsulfonyl-8-azasprio[2.5]octan-2-yl)methyl]-1H-pyrrolo[3,2-c]pyridine-2-carboxamide] was run?
A: The IC50 was 2000 nM.

Q: How did the IC50 (Homo sapiens, A2780, 72 h) turn out when O=C(CCc1cccnc1)N1CCC2(CC1)CC2CNC(=O)N1Cc2ccncc2C1 (stereo not drawn) [Example 209, N-[[6-[3-(3-pyridyl)propanoyl]-6-azaspiro[2.5]octan-2-yl]methyl]-1,3-dihydropyrrolo[3,4-c]pyridine-2-carboxamide] was run?
A: The IC50 was 203 nM.

Q: Which IC50 (Homo sapiens, A2780, 72 h) does the source give for CC(C)(O)COC(=O)N1CCC2(CC1)CC2CNC(=O)c1cc2cnccc2[nH]1 (stereo not drawn) [Example 401, (2-hydroxy-2-methyl-propyl) 2-[(1H-pyrrolo[3,2-c]pyridine-2-carbonylamino)methyl]-6-azaspiro[2.5]octane-6-carboxylate] here?
A: Its IC50 is 2000 nM.

Q: Which IC50 (Homo sapiens, A2780, 72 h) does the source give for CC(C)C(=O)N1CCC2(CC1)CC2CNC(=O)c1cc2cnccc2[nH]1 (stereo not drawn) [Example 12] here?
A: The IC50 was 2000 nM.

Q: CN(C)Cc1ccc(C(=O)N2CCC3(CC2)CC3CNC(=O)c2cc3ccncc3o2)cc1 (stereo not drawn) [Example 71, N-[[6-[4-[(dimethylamino)methyl]benzoyl]-6-azaspiro[2.5]octan-2-yl]methyl]furo[2,3-c]pyridine-2-carboxamide] was tested. Which IC50 (Homo sapiens, A2780, 72 h) did it give?
A: Its IC50 is 13.7 nM.

Q: For O=C(NCC1CC12CCN(C(=O)c1cc(C(F)(F)F)[nH]n1)CC2)N1Cc2ccncc2C1 (stereo not drawn) [Example 396, N-[[6-[5-(trifluoromethyl)-1H-pyrazole-3-carbonyl]-6-azaspiro[2.5]octan-2-yl]methyl]-1,3-dihydropyrrolo[3,4-c]pyridine-2-carboxamdie], which IC50 (Homo sapiens, A2780, 72 h) is on record?
A: Its IC50 is 17.5 nM.

Q: CC1(C)CC1C(=O)N1CCC2(CC1)CC2CNC(=O)c1cc2ccncc2o1 (stereo not drawn) [Example 373, N-[[6-(2,2-dimethylcyclopropanecarbonyl)-6-azaspiro[2.5]octan-2-yl]methyl]furo[2,3-c]pyridine-2-carboxamide] was tested. Which IC50 did it give?
A: Its IC50 is 7.03 nM.

Q: O=C(CCc1ccccc1)N1CCC2(CC1)CC2CNC(=O)N1Cc2ccncc2C1 (stereo not drawn) [Example 199, N-[[6-(3-phenylpropanoyl)-6-azaspiro[2.5]octan-2-yl]methyl]-1,3-dihydropyrrolo[3,4-c]pyridine-2-carboxamide] was tested. Which IC50 (Homo sapiens, A2780, 72 h) did it give?
A: Its IC50 is 184 nM.

Q: With O=C(CCC1CCCCC1)N1CCC2(CC1)CC2CNC(=O)N1Cc2ccncc2C1 (stereo not drawn) [Example 197, N-[[6-(3-cyclohexylpropanoyl)-6-azaspiro[2.5]octan-2-yl]methyl]-1,3-dihydropyrrolo[3,4-c]pyridine-2-carboxamide] as the compound, how does the IC50 (Homo sapiens, A2780, 72 h) read?
A: Its IC50 is 9.61 nM.

Q: CC1(C)CC1C(=O)N1CCC2(CC1)CC2CNC(=O)N1Cc2ccncc2C1 (stereo not drawn) [Example 377, N-[[6-(2,2-dimethylcyclopropanecarbonyl)-6-azaspiro[2.5]octan-2-yl]methyl]-1,3-dihydropyrrolo[3,4-c]pyridine-2-carboxamide] was tested. Which IC50 (Homo sapiens, A2780, 72 h) did it give?
A: Its IC50 is 1.59 nM.

Q: With CC(C)(O)COCC(=O)N1CCC2(CC1)CC2CNC(=O)N1Cc2ccncc2C1 (stereo not drawn) [Example 393, N-[[6-[2-(2-hydroxy-2-methyl-propoxy)acetyl]-6-azaspiro[2.5]octan-2-yl]methyl]-1,3-dihydropyrrolo[3,4-c]pyridine-2-carboxamide] as the compound, how does the IC50 (Homo sapiens, A2780, 72 h) read?
A: Its IC50 is 18.5 nM.

Q: CC(C)(C)CS(=O)(=O)N1CCC2(CC1)CC2CNC(=O)c1cc2ccncc2[nH]1 (stereo not drawn) [Example 379, N-[[6-(2,2-dimethylpropylsulfonyl)-6-azaspiro[2.5]octan-2-yl]methyl]-1H-pyrrolo[3,2-c]pyridine-2-caarboxamide] was tested. Which IC50 (Homo sapiens, A2780, 72 h) did it give?
A: Its IC50 is 2000 nM.

Q: CCC(=O)N1CCC2(CC1)CC2CNC(=O)c1cc2cnccc2[nH]1 (stereo not drawn) [Example 20] was tested. Which IC50 (Homo sapiens, A2780, 72 h) did it give?
A: The IC50 was 2000 nM.

Q: CC(C)(C)CS(=O)(=O)N1CCC2(CC1)CC2CNC(=O)N1Cc2ccncc2C1 (stereo not drawn) [Example 381, N-[[6-(2,2-dimethylpropylsulfonyl)-6-azaspiro[2.5]octan-2-yl]methyl]-1,3-dihydropyrrolo[3,4-c]pyridine-2-carboxamide] was tested. Which IC50 (Homo sapiens, A2780, 72 h) did it give?
A: Its IC50 is 55.4 nM.

Q: How did the IC50 (Homo sapiens, A2780, 72 h) turn out when CC(C)(O)CCC(=O)N1CCC2(CC1)CC2CNC(=O)N1Cc2ccncc2C1 (stereo not drawn) [Example 360, N-[[6-(4-hydroxy-4-methyl-pentanoyl)-6-azaspiro[2.5]octan-2-yl]methyl]-1,3-dihydropyrrolo[3,4-c]pyridine-2-carboxamide] was run?
A: The IC50 was 50.9 nM.
